Measurements: BindingDB's records for doi:10.1021/jm9600813 (National Institute of Diabetes and Digestive and Kidney …, 1996)

Target: Sigma non-opioid intracellular receptor 1 (Cavia porcellus) (UniProt Q60492)
Test: Displacement of [3H](+)-pentazocine from Sigma opioid receptor type 1 in guinea pig brain membrane

Chain of Sigma non-opioid intracellular receptor 1 (Cavia porcellus) (Q60492 whole entry, looked up): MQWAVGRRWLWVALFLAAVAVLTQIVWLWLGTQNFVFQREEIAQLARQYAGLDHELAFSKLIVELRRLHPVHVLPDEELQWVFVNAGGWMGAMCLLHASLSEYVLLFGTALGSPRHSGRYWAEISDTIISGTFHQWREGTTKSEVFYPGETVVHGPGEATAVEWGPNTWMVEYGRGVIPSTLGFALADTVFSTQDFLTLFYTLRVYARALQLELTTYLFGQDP

Row | SMILES | Ki [nM]
1 | CN(CCN1CCCC1)C(=O)Cc1ccccc1[N+](=O)[O-] [N-Methyl-2-(2-nitro-phenyl)-N-(2-pyrrolidin-1-yl-ethyl)-acetamide] | 736
2 | COc1cccc(CC(=O)N(C)CCN2CCCC2)c1 [2-(3-Methoxy-phenyl)-N-methyl-N-(2-pyrrolidin-1-yl-ethyl)-acetamide] | 3100
3 | CN(CCN1CCCC1)C(=O)Cc1ccc([N+](=O)[O-])cc1 [N-Methyl-2-(4-nitro-phenyl)-N-(2-pyrrolidin-1-yl-ethyl)-acetamide] | 869
4 | COc1cccc(CCN(C)CCN2CCCC2)c1 [[2-(3-Methoxy-phenyl)-ethyl]-methyl-(2-pyrrolidin-1-yl-ethyl)-amine] | 23.8
5 | COc1ccc(CC(=O)N(C)CCN2CCCC2)cc1 [2-(4-Methoxy-phenyl)-N-methyl-N-(2-pyrrolidin-1-yl-ethyl)-acetamide] | 2220
6 | COc1ccc(CCN(C)CCN2CCCC2)cc1 [[2-(4-Methoxy-phenyl)-ethyl]-methyl-(2-pyrrolidin-1-yl-ethyl)-amine] | 30.3
7 | CN(CCN1CCCC1)C(=O)Cc1cccc([N+](=O)[O-])c1 [N-Methyl-2-(3-nitro-phenyl)-N-(2-pyrrolidin-1-yl-ethyl)-acetamide] | 1850
8 | CN(CCc1ccc(N)cc1)CCN1CCCC1 [4-{2-[Methyl-(2-pyrrolidin-1-yl-ethyl)-amino]-ethyl}-phenylamine] | 276

More lines, now with the values ahead:

Row | Ki [nM] | SMILES
9 | 4.3 | CN(CCc1ccc([N+](=O)[O-])cc1)CCN1CCCC1 [Methyl-[2-(4-nitro-phenyl)-ethyl]-(2-pyrrolidin-1-yl-ethyl)-amine]
10 | 7.7 | CN(CCc1ccccc1[N+](=O)[O-])CCN1CCCC1 [Methyl-[2-(2-nitro-phenyl)-ethyl]-(2-pyrrolidin-1-yl-ethyl)-amine]
11 | 6.4 | CN(CCc1cccc([N+](=O)[O-])c1)CCN1CCCC1 [Methyl-[2-(3-nitro-phenyl)-ethyl]-(2-pyrrolidin-1-yl-ethyl)-amine]
12 | 15.7 | COc1ccccc1CCN(C)CCN1CCCC1 [[2-(2-Methoxy-phenyl)-ethyl]-methyl-(2-pyrrolidin-1-yl-ethyl)-amine]
13 | 579 | CN(CCc1cccc(N)c1)CCN1CCCC1 [3-{2-[Methyl-(2-pyrrolidin-1-yl-ethyl)-amino]-ethyl}-phenylamine]
14 | 291 | CN(CCc1ccccc1N)CCN1CCCC1 [2-{2-[Methyl-(2-pyrrolidin-1-yl-ethyl)-amino]-ethyl}-phenylamine]
